Experimental data reported in paper PMC8537897, “Design, Synthesis and Biological Evaluation of Aromatase Inhibitors Based on Sulfonates and Sulfonamides of Resveratrol” (Pharmaceuticals, 2021).
Read-outs that look alike come from different tables or passages of the source.

Legend:
human aromatase = target: T1, human aromatase (Homo sapiens, UniProt P11511); assay: Aromatase inhibition, fluorimetric assay kit (Aromatase-CYP19A Inhibitor Screening kit, BioVision); assay type: biochemical; settings: for IC50: tested at concentrations from 0.01 to 100 μM, mean of triplicate determinations
T1 construct: purchased BioVision, Milpitas, CA, USA
T1 sequence (P11511 1-503): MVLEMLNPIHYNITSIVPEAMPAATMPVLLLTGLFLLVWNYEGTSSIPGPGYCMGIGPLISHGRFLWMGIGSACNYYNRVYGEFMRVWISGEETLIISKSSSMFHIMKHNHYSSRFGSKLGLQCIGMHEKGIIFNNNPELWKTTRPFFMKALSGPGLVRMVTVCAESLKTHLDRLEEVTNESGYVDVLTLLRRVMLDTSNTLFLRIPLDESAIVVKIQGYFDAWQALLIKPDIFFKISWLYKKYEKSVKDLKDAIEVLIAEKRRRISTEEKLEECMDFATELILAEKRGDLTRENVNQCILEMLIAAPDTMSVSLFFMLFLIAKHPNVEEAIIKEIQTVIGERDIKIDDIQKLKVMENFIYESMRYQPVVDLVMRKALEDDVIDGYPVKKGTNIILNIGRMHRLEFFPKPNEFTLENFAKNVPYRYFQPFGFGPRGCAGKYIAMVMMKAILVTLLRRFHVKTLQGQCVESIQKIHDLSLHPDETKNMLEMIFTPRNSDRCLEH
Protocol: The activity was measured each minute for 60 min and the value obtained for each compound after 10 min was chosen to calculate the percentage of the aromatase inhibition.
The aromatase inhibitory activity was determined using a commercial fluorimetric assay kit (Aromatase-CYP19A Inhibitor Screening kit, BioVision, Milpitas, CA, USA), as reported elsewhere. The assay utilizes a fluorogenic aromatase substrate that is converted into a highly fluorescent metabolite detected in the visible range (Ex/Em 488/527 nm). […] During the incubation, the Aromatase Substrate/NADP+ mixture was prepared, and the reaction was started by adding 30 µL of this solution to each well (aside from the background control), reaching a final reaction volume of 100 µL/well. The fluorescence emission (527 nm) was measured immediately (within 1 min) by means of a fluorometer equipped with a 488 nm filter (GloMax®-Multi Detection System, Promega, Madison, WI, USA) and afterwards monitored for 60 min. […] The assay was performed in the same experimental conditions used for the initial screening of compounds. Dose–response curves were fitted with GraphPad Prism 5.0 (GraphPad Software, San Diego, CA, USA).

[1] = test system: MCF7 breast cancer cell line; assay: Cell metabolic activity / viability (MTT assay) on MCF7; assay type: cell-based, human; settings: for IC50: MTT, tested 0 to 500 µM;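 on all read-outs here: MTT optical density read-out in human MCF7 cells, normalised to DMSO vehicle-treated cells as 100%, with IC50 derived from fitted concentration–response curves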
Protocol: Cell metabolic activity of HFF-1 and MCF7 cells was assessed by MTT (3-(4,5-Dimethylthiazol-2-yl)-2,5-Diphenyltetrazolium Bromide) test (Sigma Aldrich, Milan, Italy). […] After the established exposure times, cells were incubated with MTT (0.5 mg/mL) and the optical density was measured as reported elsewhere [63]. Results were expressed as the percentage of cells in the presence of vehicle (DMSO) set as 100% and each experiment was performed in triplicate (n = 3). Concentration–response curves and IC50 were fitted and calculated with GraphPad Prism 5.0 (GraphPad Software, San Diego, CA, USA).

[2] = test system: normal human skin fibroblast (HFF-1); assay: Cell metabolic activity (MTT assay) on HFF-1; assay type: cell-based
Protocol: The compounds were then biologically characterized in terms of cytotoxicity occurrence (LDH released) on MCF7 cells. […] After 24 h of treatment, a dose-dependent decrease in cell metabolic activity can be registered for all the compounds with respect to DMSO alone. […] Similar results were obtained also after 72 h of treatment.
Human skin fibroblasts (HFF-1, CVCL_3285) and human breast cancer MCF7 (HTB-22™, CVCL_0031) were purchased from ATCC and maintained in Dulbecco’s modified Eagle’s medium (DMEM) high glucose (EuroClone, Milan, Italy) supplemented with 10% of fetal bovine serum (FBS) and 1% of penicillin/streptomycin (Gibco—Thermo Fisher Scientific, MD, USA).
Cell metabolic activity of HFF-1 and MCF7 cells was assessed by MTT (3-(4,5-Dimethylthiazol-2-yl)-2,5-Diphenyltetrazolium Bromide) test (Sigma Aldrich, Milan, Italy). […] After the established exposure times, cells were incubated with MTT (0.5 mg/mL) and the optical density was measured as reported elsewhere. Results were expressed as the percentage of cells in the presence of vehicle (DMSO) set as 100% and each experiment was performed in triplicate (n = 3). Concentration–response curves and IC50 were fitted and calculated with GraphPad Prism 5.0 (GraphPad Software, San Diego, CA, USA).

MCF7 cells [3] = assay: Cytotoxicity test (lactate dehydrogenase release); assay type: cell-based, human; settings: 24 h
Protocol: To assess whether the decrease in metabolic activity is a consequence of cytotoxic occurrence in the presence of compounds 1b, 1c, and 1j, lactate dehydrogenase (LDH) released from MCF7 was measured in response to loading concentrations of 0–250 µM after a 24 h exposure. […] It is, therefore, plausible to assume that all tested compounds exert their anti-proliferative effect on MCF7 cells through cytotoxic induction and 1c is the most promising compound, being active already at lower doses.
MCF7 cells were seeded and stimulated as previously described for the MTT test. After the exposure time, cell supernatants were collected, centrifuged at 450× g for 4 min, and stored on ice. In order to quantify the cytotoxicity of loading concentrations of compounds 1b, 1c, and 1j (0–250 µM), the CytoTox 96® Non-Radioactive Cytotoxicity Assay (Promega Corporation, Madison, WI, USA) was performed as previously reported. The results were normalized on MTT absorbances and expressed as fold increases on the LDH released by cultures in the presence of vehicle (DMSO) set as 1.

MCF7 cells [4] = assay: Hematoxylin/eosin staining; assay type: cell-based, human; settings: MCF7, 50 µM, 72 h, vs DMSO
Protocol: The effectiveness on MCF7 cells of compound 1c over the other compounds is confirmed by the hematoxylin/eosin staining (H&E) performed after 72 h of treatment at 50 µM. […] At a higher magnification (panels C and D), MCF7 cells show chromatin condensation (green arrows), as a typical sign of the initiation of cell death.
MCF7 cells were seeded (7 × 10^4 cells/well) in well glasses (Millicell® EZ slide, Merck Millipore, Burlington, MA, USA). After 24 h from seeding, cells were exposed to compound 1c at 50 µM for 72 h. Next, supernatants were removed, and cells were washed twice with PBS with calcium and magnesium (Euro Clone, Milan, Italy). MCF7 cells were fixed in the presence of p-formaldehyde 4% and stained with hematoxylin/eosin as reported elsewhere.

[5] = Chemical stability by RP-nano-LC at 37 °C; assay type: physicochemical; settings: 72 h, 100 µg/mL; for Chemical stability, basic conditions: 0.1 mM sodium hydroxide solution pH 9, 37 °C; for Chemical stability, acidic conditions: 10 mM hydrochloric acid buffer pH 2.0, 37 °C
From the text: The results were compared with corresponding sulfonamides 2b–c and 2j. […] Advantages including low consumption of mobile and stationary phases and minimal sample volumes make this analytical tool more cost-effective and eco-friendlier with respect to the conventional HPLC. In addition, the reduction in particle diameter and the use of short chromatographic capillary column allow rapid analyses in isocratic elution mode.
Due to the low solubility of some compounds in pure water, the study was performed in an aqueous solution containing ACN/H2O as mobile phase. These conditions led to the chromatographic separation of each compound within 6 min. […] The analyses were performed with a nano-LC apparatus at appropriate intervals for 72 h, maintaining the prepared samples at a temperature of 37 °C.
Detection wavelength was set at 206 nm, and data were collected using ClarityTM Advanced Chromatography Software (Data Apex Ltd., Prague, Czech Republic).
To reduce the flow rate from µ- to nL/min, the HPLC pump delivering MeOH continuously and the injector were connected to a passive split-flow system. For this purpose, both the HPLC pump and injection valve were joined to a stainless-steel T-piece (Vici, Valco, Houston, TX, USA) by means of 500 µm id stainless steel tubes with lengths of 50 and 5 cm, respectively. The third entrance of the T-piece was connected to the MeOH reservoir of the pump through a fused silica capillary (50 µm id × 50 cm), achieving continuous recycling of the organic solvent. To minimize the dead volume and consequently reduce the band broadening effect, the capillary column was directly inserted into the modified injector, which was used for both sample loading and mobile phase reservoir. Samples and mobile phases were introduced into the capillary column through the injection valve by filling the loop with the sample solutions, switching the valve for the appropriate time, and then flushing the loop with the mobile phase. The analysis started immediately after positioning the injector device in the injection mode. […] In the optimized conditions, the flow rate of the column was about 450 nL/min. Nano-LC experiments were performed in uncoated fused silica capillaries (100 μm internal diameter) from Composite Metal Services, Hallow, UK), packed in our laboratory following the slurry packing procedure as described previously. The capillary column was packed with ChromSpher C18, 3 μm particle size (Varian, Palo Alto, CA, USA) for 15 cm.
Chromatographic conditions and standards preparation were as follows: the nano-LC analyses were performed in the capillary column employing as mobile phase a mixture of ACN/H2O ([…]) containing a 10 mM sodium hydrocarbonate buffer, pH 8.5. […]

[6] = Homo sapiens, MCF7, 24 h, 24 h, read-out: MCF7 Cells IC50 24 h
[7] = Homo sapiens, MCF7, 72 h, 72 h, read-out: MCF7 Cells IC50 72 h

| SMILES | inhibition at 1 µM (human aromatase) [%] | IC50 (human aromatase) [µM] | IC50 [1, 6] [µM] | IC50 [1, 7] [µM] | Viability (% of control) - 24 h ([1]; MCF7, 10 µM, 24 h) | Viability (% of control) - 72 h ([1]; MCF7, 10 µM, 72 h) | Viability (% of control) - 24 h ([1]; MCF7, 25 µM, 24 h) | Viability (% of control) - 72 h ([1]; MCF7, 25 µM, 72 h) | Viability (% of control) - 24 h ([1]; MCF7, 50 µM, 24 h) | Viability (% of control) - 72 h ([1]; MCF7, 50 µM, 72 h) | Viability (% of control) - 24 h ([1]; MCF7, 100 µM, 24 h) | Viability (% of control) - 72 h ([1]; MCF7, 100 µM, 72 h) | Viability (% of control) - 24 h ([1]; MCF7, 250 µM, 24 h) | Viability (% of control) - 72 h ([1]; MCF7, 250 µM, 72 h) | Viability (% of control) - 24 h ([1]; MCF7, 500 µM, 24 h) | Viability (% of control) - 72 h ([1]; MCF7, 500 µM, 72 h) | Chemical stability, basic conditions [5] | Chemical stability, acidic conditions [5] | further results |
| --- | --- | --- | --- | --- | --- | --- | --- | --- | --- | --- | --- | --- | --- | --- | --- | --- | --- | --- | --- |
| Cc1ccc(S(=O)(=O)Oc2ccc(/C=C/c3ccccc3)cc2)cc1[N+](=O)[O-] [1c, 4-[(E)-2-Phenylvinyl]phenyl 4-methyl-3-nitrobenzenesulfonate] | 91 | 3.17 | 29.2 | 40 | 85.23 ± 1.29 % of control | 96.62 ± 6.99 % of control | 73.08 ± 2.67 % of control | 91.88 ± 5.31 % of control | 37.39 ± 0.66 % of control | 46.19 ± 1.67 % of control | 36.17 ± 1.56 % of control | 35.22 ± 2.21 % of control | 38.64 ± 1.23 % of control | 38.30 ± 4.07 % of control | 34.30 ± 1.43 % of control | 15.08 ± 0.67 % of control |  |  | Potency in inhibiting aromatase relative to RSV (human aromatase; compared to RSV): twentyfold more potent than RSV; Metabolically active cells ([1]; MCF7, 50 µM, 24 h, DMSO alone = 100%): around 60%; IC50 ([1]; 24 h, read-out: MCF7 Cells IC50 24 h): 29.2 ± 1.9 µM; IC50 ([1]; 72 h, read-out: MCF7 Cells IC50 72 h): 39.9 ± 2.1 µM; HFF-1 viability (in words) ([2]; 0–250 µM, 24 and 72 h): significant reduction in viability only at the maximum concentration and after 72 h of treatment; Selectivity index (SI) over normal fibroblasts ([2]; HFF-1 vs MCF7, after 24 h): 1.82; LDH release, dose dependence (in words) (MCF7 cells [3]; MCF7, 0–250 µM): raises only at the highest concentration administered (250 µM); LDH released, fold vs vehicle (DMSO) set as 1 (MCF7 cells [3]; MCF7, 50 µM): three folds more; LDH released, fold vs vehicle (DMSO) set as 1 (MCF7 cells [3]; MCF7, 250 µM): almost five folds more; Cell number by H&E staining (in words) (MCF7 cells [4]): cell number is dramatically decreased |
| O=S(=O)(Cc1ccccc1)Oc1ccc(/C=C/c2ccccc2)cc1 [1j, 4-[(E)-2-Phenylvinyl]phenyl phenylmethanesulfonate] | 100 | 2.21 | > 250 | > 250 | 85.47 ± 6.41 % of control | 96.53 ± 7.12 % of control | 86.33 ± 14.64 % of control | 95.30 ± 7.88 % of control | 70.06 ± 3.80 % of control | 87.57 ± 5.26 % of control | 74.91 ± 9.24 % of control | 72.67 ± 3.46 % of control | 51.84 ± 3.08 % of control | 69.54 ± 4.11 % of control | 38.88 ± 5.23 % of control | 46.31 ± 4.73 % of control | highly degraded because of their precipitation in the basic solution | stable over the entire range of time |  |
| O=S(=O)(Cc1ccccc1)Nc1ccc(/C=C/c2ccccc2)cc1 [2j, 1-Phenyl-N-{4-[(E)-2-phenylvinyl]phenyl}methanesulfonamide] |  |  |  |  |  |  |  |  |  |  |  |  |  |  |  |  | highly degraded because of their precipitation in the basic solution | stable over the entire range of time |  |
